In patent US9283242B2, “Uses of dihydro bases” (priority 2013, dated 2016):

System: HK81 (AlkB+) E. coli cells
Assay: REAP mutagenesis assay, HK81 cells
Assay type: cell-based
Conditions: for Mutagenicity, Average % A / Mutagenicity, Average % G / Mutagenicity, Average % T: (c) HK81
Text: All E. coli strains used in this work contain the F′ episome, which enables infection by M13 phage. GW5100 strain was used for large scale preparation of M13 phage DNA, SCS 110 (JM110, end Al) was used for amplification of progeny phage post-electroporation, and NR9050 was the strain of choice for double agar plating with X-GAL for blue-clear detection of plaques. The E. coli strains used to replicate lesion-containing phage were HK81 (as AB1157, but nalA) and HK82 (as AB1157, but nalA alkB22; AlkB-deficient).
Lesion-containing genomes were mixed with the competitor genome (80:20 molar ratio) and electroporated in triplicate into 100 μl competent cells using a 2 mm-gap cuvette and a BTX electroporator set to 2.5 kV and 125 a Typical pulse lengths were 4.9 msec. The cells were immediately transferred to 10 ml LB and an aliquot was immediately plated using the agar overlay method to verify that a minimum of 10^5 independent initial electroporation events occurred in 10 ml of culture. Incubation for 6 h at 37° C. with aeration generated the progeny phage, which were then reamplified in SCS 110 cells (10 μl overnight culture and 100 μl of the 6 h supernatant in 10 ml LB) to dilute out the residual genomic DNA used for electroporation. Single-stranded M13 progeny phage DNA was isolated from 1.4 ml of supernatant using a Q1Aprep Spin M13 Kit with final DNA suspension in 100 μl elution buffer. CRAB forward and reverse primers were used to amplify the region of interest from 15 μl per Q1Aprep elution sample in a total volume of 25 μl containing 50 pmol of each primer, 1×Pfu Turbo buffer, 1.25 U Pfu Turbo DNA polymerase and […] of each dNTP. The PCR program used 30 cycles of 67° C. (1 min) annealing and 72° C. (1 min) extensions. After purification using QIAQUICK PCR purification columns, 4 μl of the PCR product were treated with BbsI (1.5 U) and SAP (0.3 U) in a total volume of 6 μl by incubating at 37° C. for 4 h. After phosphatase inactivation, (80° C. for 5 min), the 5′ ends were then radiolabeled using [γ-^32P]-ATP (1.66 pmol, 10 μCi/μl, 6000 Ci/mmol), cold ATP (16 pmol) and 5 U of OPTIKINASE at 37° C. for 30 min. Following the kinase inactivation at 65° C. for 20 min, the labeled product was then trimmed by HaeIII (10 U in a final volume of 10 μl) at 37° C. for 2 h, and diluted 1:1 in formamide loading dye. PAGE separation on a 20% denaturing gel, run for about 3.5 h at 550 V, until the xylene cyanol dye migrated 10.5 cm, yielded two bands for each sample: an 18-mer originating from the lesion-containing genome and a 21-mer originating from the competitor genome. The gels were visualized on a phosphorimager (Typhoon 7000, GE Healthcare Life Sciences); the band intensities were quantified using IMAGEJ software (National Institutes of Health). Lesion bypass was calculated as the percentage ratio of the intensity of the 18-mer band (lesion signal) to the intensity of the 21-mer band (competitor signal).
The REAP assay methodology is identical to the CRAB assay except for the PCR primers, which amplified only the progeny DNA originating from the lesion-carrying genomes. Following electrophoresis, the 18-mer bands were excised from the gel, crushed and extracted with 200 μl water. After desalting with SEPHADEX G-50 Fine resin spin columns, the samples were lyophilized to dryness, resuspended in 5 μl containing 1 μg P1 Nuclease in 30 mM sodium acetate (pH 5.3) and 10 mM zinc chloride, and incubated at 50° C. for 1 h. One μl of each sample was then spotted onto PEI-TLC plates and separated using 200 ml of a saturated solution of (NH4)2HPO4 adjusted to pH 5.8. After 24 h of development, the TLC plates were air-dried and quantified using phosphorimagery. […]

Structure (SMILES) | Mutagenicity, Average % C | Mutagenicity, Average % A | Mutagenicity, Average % G | Mutagenicity, Average % T
NC1=NC(=O)N([C@H]2C[C@H](O)[C@@H](CO)O2)CN1 [KP1212, 5-aza-5,6-dihydro-2′-deoxycytidine] | 90.2% | 0.2% | 0.1% | 9.5%
Nc1ccn([C@H]2C[C@H](O)[C@@H](CO)O2)c(=O)n1 [dC, deoxycytidine] | 99.9% | 0.1% | 0.0% | 0.0%
